Measurements from patent publication US20040053822A1, “Inducing cellular immune responses to mage2/3 using peptide and nucleic acid compositions” (priority 2002, published 2004).
pIC50: −log10 of the molar value.

Columns and labels:
[1] = target: HLA-DRB1*0401 (DR4w4) (Homo sapiens, UniProt P01903+P01911, A100K/A169T/F76Y/I96L/K127E/L162R/M171V/N62H/P40V/Q125Y/R42H/S133A/S149N/S66Y/V115G/V209L/W38E); assay: Purified HLA class II peptide binding assay, DRB1*0401
[2] = target: HLA-A*0301 (Homo sapiens, UniProt P04439); assay: Purified HLA class I peptide binding assay, A*0301; details: binding affinity, HLA-A3 supermotif-bearing peptides
[3] = target: HLA-A*1101 (Homo sapiens, UniProt P04439, A114D/D185E/E176A/F33Y/L180Q/S129P/T187R); assay: Purified HLA class I peptide binding assay, A*1101; details: binding affinity, HLA-A3 supermotif-bearing peptides
Sequence of HLA-A*1101 (P04439 25-365 limits assumed, stated change not applied): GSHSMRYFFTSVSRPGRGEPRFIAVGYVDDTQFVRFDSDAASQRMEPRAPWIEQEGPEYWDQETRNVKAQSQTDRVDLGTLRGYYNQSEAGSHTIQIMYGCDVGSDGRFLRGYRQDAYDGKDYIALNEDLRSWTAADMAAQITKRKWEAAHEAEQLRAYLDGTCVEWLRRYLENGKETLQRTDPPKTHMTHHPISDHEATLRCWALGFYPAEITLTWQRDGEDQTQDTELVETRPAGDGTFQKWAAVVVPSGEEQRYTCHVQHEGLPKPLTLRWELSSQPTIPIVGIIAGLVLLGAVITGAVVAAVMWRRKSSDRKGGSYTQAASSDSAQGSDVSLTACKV

[4] = target: HLA-A*6801 (Homo sapiens, UniProt P04439, A269V/D185E/E176V/E277Q/E87N/F33Y/G231S/I121M/I166T/I218V/L180W/L300P/L318F/N151K/P208A/P217A/Q86R/R169H/T345S); assay: Purified HLA class I peptide binding assay, A*6801; details: binding affinity, HLA-A3 supermotif-bearing peptides
[5] = target: HLA-A*3301 (Homo sapiens, UniProt P04439, A270S/D185E/E176V/E277Q/E87N/F33T/G231S/H175R/I121M/I218V/I322F/K168Q/K210R/L300P/L318F/M331R/P217A/Q86R/Q94H/R138Q/T323A/T345S/T97I/V358M/Y195H); assay: Purified HLA class I peptide binding assay, A*3301; details: binding affinity, HLA-A3 supermotif-bearing peptides
[6] = target: HLA-A*3101 (Homo sapiens, UniProt P04439, A270S/D185E/E176V/E277Q/F33T/G231S/G80R/H175R/I121M/I218V/I322F/K168Q/L300P/L318F/M331R/P217A/Q94H/R138Q/T323A/T345S/T97I/V358M); assay: Purified HLA class I peptide binding assay, A*3101; details: binding affinity, HLA-A3 supermotif-bearing peptides

pIC50 [1]	pIC50 [2]	pIC50 [3]	pIC50 [4]	pIC50 [5]	pIC50 [6]	SMILES
5.43	–	–	–	–	–	CC[C@H](C)[C@H](NC(=O)[C@H](C)NC(=O)[C@@H](NC(=O)[C@@H](NC(=O)[C@H](C)NC(=O)[C@H](CC(C)C)NC(=O)[C@@H](NC(=O)[C@@H](NC(=O)[C@@H](NC(=O)[C@H](CC(C)C)NC(=O)[C@@H](N)CC(C)C)[C@@H](C)CC)[C@@H](C)CC)C(C)C)[C@@H](C)CC)[C@@H](C)CC)C(=O)N[C@@H](CCC(=O)O)C(=O)NCC(=O)N[C@@H](CC(=O)O)C(=O)N[C@@H](CS)C(=O)O
–	6.87	7.49	6.54	< 5.00	6.05	CC[C@H](C)[C@H](NC(=O)[C@H](CC(C)C)NC(=O)[C@H](C)N)C(=O)N[C@@H](CCC(=O)O)C(=O)N[C@H](C(=O)N[C@@H](CO)C(=O)N[C@@H](Cc1ccc(O)cc1)C(=O)N[C@H](C(=O)N[C@@H](CCCCN)C(=O)O)C(C)C)[C@@H](C)O
